Literature values, collected in US20090035369A1, “Composition and Methods for Treating and Preventing Age-Related Macular Degeneration” (priority 2006, published 2009).

Legend:
neovascularization = conditions: rodent model
[1] = pure DIM
[2] = pure DIM; remark: listed apart in the source

solubility [1]: insoluble
absorption by the human body [2]: poorly absorbed
SMILES: c1ccc2c(Cc3c[nH]c4ccccc34)c[nH]c2c1 [DIM, 3,3′-diindolylmethane]
inhibition of neovascularization (neovascularization): up to 76%
